Here are results for 15 compounds from patent US20130109682A1, “CYCLIC ETHER COMPOUNDS USEFUL AS KINASE INHIBITORS” (NOVARTIS AG, priority 2010, published 2013).

Assay [1] has as its target PDGFRaV561D kinase (Homo sapiens, UniProt P16234, V561D). Description: PDGFRaV561D kinase inhibition assay (LanthaScreen TR-FRET). The format is biochemical. To be noted: read-out: PDGFRa IC50. Here is the method:
PDGFRaV561D Kinase Inhibition Assay
LanthaScreen™ is the detection of Time-Resolved Fluorescence Resonance Energy Transfer (TR-FRET) using lanthanide chelates to measure interactions between various binding partners. The application of TR-FRET to assay kinase activity was first described by Mathis (1995). A TR-FRET assay was used to measure PDGFRaV561D kinase inhibitory activity. The assay panel was run on a Biomek FX liquid handling workstations. To the assay plates containing […] compound or control solutions, 4.5 μL of buffer A (50 mM TRIS-HCl pH 7.4, 2 mM DTT, 0.02% Tween 20, 0.02 mM Na3VO4, H2O nanpure) including a generic concentration of ATP (2 μM f.c.) was added per well, followed by […] of buffer B (4 uM ATP in Buffer A) including a generic concentration of polyEAY (50 nM f.c.), PDGFRaV561D kinase, and divalent cations. Final concentration of kinase and cations were: [PDGFRaV561D kinase]=4.4 nM, [Mn]=10 mM. After 1 hour of incubation the kinase reactions were stopped by the addition of 4.5 μL of stop solution D (50 mM EDTA, 20 mM TRIS-HCl pH 7.4, 0.04% NP-40) immediately followed by 4.5 μL of buffer A (50 mM TRIS-HCl pH 7.4, 2 mM DTT, 0.02% Tween 20, 0.02 mM Na3VO4, H2O nanpure) including the Tb-labeled P-20 antibody to give a total detection volume of […]. After an incubation time of 45 min in the dark, the plates were transferred into the Pherastar fluorescence reader for counting. The effect of compound on the enzymatic activity was obtained from the linear progress curves and determined from one reading (end point measurement).
Background: In TR-FRET formats the signal depends on donor and acceptor labels being close together.

Assay [2] concerns KMS11 (human myeloma cell line). As to the kind of experiment: Cell proliferation assay (CellTiter-Glo), KMS11. Type of assay: cell-based. Particulars: Homo sapiens, KMS-11. An outline of the steps:
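EC50 derived from CellTiter-Glo luminescence after 3-day exposure at 37° C. Compound was diluted to 2× in medium and added to an equal volume of cells. KMS11 myeloma cells were plated on assay day at 2000/well in IMDM with 10% FBS and sodium pyruvate.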

For assay [3], the target named is PKCα (Homo sapiens, UniProt P17252). Description: PKCα kinase Caliper assay. Type of assay: biochemical. Particulars: read-out: PKC IC50. Here is the method: PKCα and cABLT315 Kinase Caliper Assays
Assays were performed in 384 well microtiter plates. Each assay plate contained 8-point serial dilutions for test compounds, as well as two 16-point serial dilutions of staurosporine as reference compound, plus 16 high- and 16 low controls. Liquid handling and incubation steps were done on a Thermo CatX workstation equipped with a Innovadyne Nanodrop Express. Between pipetting steps, tips were cleaned in wash cycles using wash buffer. Plates with terminated kinase reactions were transferred to the Caliper LC3000 workstations for reading. Phosphorylated and unphosphorylated peptides were separated using the Caliper microfluidic mobilitishift technology and Kinase activities were calculated from the amounts of formed phospho-peptide.
1. 0.05 μA Compound (start with 1.8 mM in 90% DMSO/10% H2O)
2. +4.5 μl 2× peptide/ATP solution
3. +4.5 μl 2× enzyme solution
4. Incubate for 60 min at 30° C.
4. +16 μl stop/run buffer
Independent of the kinase, all reactions were done performed in 50 mM HEPES, pH 7.5, 1 mM DTT, 0.02% Tween20, 0.02% BSA, and 0.6% DMSO.

Assay [4] deals with GSK3β (Homo sapiens, UniProt P49841). Description: GSK3β ATP depletion assay. Type of assay: biochemical. Particulars: read-out: GSK3b IC50. An outline of the steps:
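Kinase activity is read as ATP consumption: luciferase luminescence reports the ATP remaining once roughly half of the 2 μM ATP is used. Reaction mix: 5 nM GSK3β, 10 μM b-CREB peptide, 50 mM Tris pH 7.5, 15 mM MgCl2, 1 mM DTT, 0.1% BSA, 2.5% DMSO. Enzyme and peptide are preincubated 15 min before ATP is added.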

[5] abbreviates: KMS11 cells, cell proliferation, read-out: KMS11-Luc EC50.

For orientation: IC50 means the midpoint of a concentration-inhibition curve. One may read the EC50 as the concentration that produces a half-maximal response.

Like-named read-outs stand apart in the source and are kept apart here.

Chain of PDGFRaV561D kinase (P16234 24-1089 V561D): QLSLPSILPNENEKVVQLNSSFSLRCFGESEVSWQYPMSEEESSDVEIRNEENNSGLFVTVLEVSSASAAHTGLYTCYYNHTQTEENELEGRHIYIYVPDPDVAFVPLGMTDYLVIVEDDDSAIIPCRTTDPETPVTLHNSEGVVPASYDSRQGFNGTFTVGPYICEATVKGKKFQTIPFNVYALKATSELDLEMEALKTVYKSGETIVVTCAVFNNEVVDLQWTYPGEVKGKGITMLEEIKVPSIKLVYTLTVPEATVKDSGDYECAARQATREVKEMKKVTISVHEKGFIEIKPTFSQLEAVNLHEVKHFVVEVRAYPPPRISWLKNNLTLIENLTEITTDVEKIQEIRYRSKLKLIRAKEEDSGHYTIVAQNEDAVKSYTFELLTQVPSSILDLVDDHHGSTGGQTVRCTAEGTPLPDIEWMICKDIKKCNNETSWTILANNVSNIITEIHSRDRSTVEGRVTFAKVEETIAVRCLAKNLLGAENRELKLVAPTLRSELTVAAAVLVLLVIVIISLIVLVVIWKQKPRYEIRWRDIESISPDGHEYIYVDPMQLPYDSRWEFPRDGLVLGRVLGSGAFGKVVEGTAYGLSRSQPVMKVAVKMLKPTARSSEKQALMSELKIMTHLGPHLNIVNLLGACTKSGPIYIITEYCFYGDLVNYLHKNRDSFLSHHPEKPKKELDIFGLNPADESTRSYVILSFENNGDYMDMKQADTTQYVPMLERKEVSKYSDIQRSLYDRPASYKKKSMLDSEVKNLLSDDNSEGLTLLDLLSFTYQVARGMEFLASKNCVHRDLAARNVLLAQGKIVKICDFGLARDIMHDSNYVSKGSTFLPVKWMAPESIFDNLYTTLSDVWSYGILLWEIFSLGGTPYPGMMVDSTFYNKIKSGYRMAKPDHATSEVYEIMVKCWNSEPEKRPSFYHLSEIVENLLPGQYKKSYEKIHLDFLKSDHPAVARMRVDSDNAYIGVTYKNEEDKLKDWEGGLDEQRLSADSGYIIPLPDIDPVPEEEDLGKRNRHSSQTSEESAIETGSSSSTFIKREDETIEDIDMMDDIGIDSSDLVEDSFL
Chain of GSK3β (P49841 whole entry, species assumed): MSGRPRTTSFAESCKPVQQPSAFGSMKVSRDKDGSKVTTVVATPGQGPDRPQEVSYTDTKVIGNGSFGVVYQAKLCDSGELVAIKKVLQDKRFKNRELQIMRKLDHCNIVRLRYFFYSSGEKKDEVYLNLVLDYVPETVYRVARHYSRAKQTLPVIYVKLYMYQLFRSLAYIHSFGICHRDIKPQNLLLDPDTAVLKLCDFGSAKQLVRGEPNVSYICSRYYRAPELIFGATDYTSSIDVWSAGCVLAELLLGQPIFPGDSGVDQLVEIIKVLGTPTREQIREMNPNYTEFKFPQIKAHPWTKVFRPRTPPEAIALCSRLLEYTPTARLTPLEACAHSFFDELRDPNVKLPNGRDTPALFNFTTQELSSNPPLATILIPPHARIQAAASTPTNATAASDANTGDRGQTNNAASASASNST

Consider `Nc1ncc(-c2ccccc2)nc1C(=O)Nc1cnccc1[C@@H]1C[C@H](O)[C@]2(O)CCC[C@@H]2O1` [Example 186, 3-amino-N-(4-((2S,4S,4aR,7aS)-4,4a-dihydroxyoctahydrocyclopenta[b]pyran-2-yl)pyridin-3-yl)-6-phenylpyrazine-2-carboxamide], for which the results for the IC50 in assay [1], in assay [3] and in assay [4] were more than 10000 nM, 760 nM and 40 nM, respectively. Further, in assay [2] (KMS11-Luc cells), a half-maximal response (EC50) required 6910 nM.

As to `CC(C)(C)[C@@H]1O[C@H](c2ccncc2NC(=O)c2nc(-c3ccccc3)cnc2N)C[C@H](N)[C@H]1O` [Example 355, 3-amino-N-(4-((2S,4S,5R,6S)-4-amino-6-tert-butyl-5-hydroxytetrahydro-2H-pyran-2-yl)pyridin-3-yl)-6-phenylpyrazine-2-carboxamide], the IC50 in assay [1] came to 9100 nM; in assay [3] (PKCα Caliper assay), 840 nM; in assay [4] (ATP depletion assay), 170 nM. Moreover, in assay [2] (setting [5]), the EC50 was 210 nM.

Take `Nc1ncc(-c2ccccc2)nc1C(=O)Nc1cnccc1[C@H]1C[C@@H](O)[C@@]2(O)CCC[C@H]2O1` [Example 195, 3-amino-N-(4-((2R,4R,4aS,7aR)-4,4a-dihydroxyoctahydrocyclopenta[b]pyran-2-yl)pyridin-3-yl)-6-phenylpyrazine-2-carboxamide]: the IC50 is 33 nM in assay [1], 230 nM in assay [3] and 1 nM in assay [4]. The same compound displayed an EC50 in assay [2] (KMS11-Luc cells) of 110 nM.

As for `O=C1CC[C@H]2O[C@@H](c3ccncc3NC(=O)c3ccc(F)c(-c4c(F)cccc4F)n3)C[C@@H](O)[C@@H]2N1` [Example 196, 6-(2,6-difluorophenyl)-5-fluoro-N-(4-((2R,4R,4aS,8aR)-4-hydroxy-6-oxooctahydro-2H-pyrano[3,2-b]pyridin-2-yl)pyridin-3-yl)picolinamide], the IC50 in assay [1] is more than 10000 nM; in assay [3] it was more than 10000 nM; in assay [4], 645 nM. The same compound yielded an EC50 in assay [2] (KMS11-Luc cells) of 8100 nM.

As to `N[C@@H]1C[C@H](c2ccncc2NC(=O)c2ccc(F)c(-c3c(F)cccc3F)n2)O[C@@H]2CCC[C@]12O` [Example 210, N-(4-((2R,4R,4aS,7aR)-4-amino-4a-hydroxyoctahydrocyclopenta[b]pyran-2-yl)pyridin-3-yl)-6-(2,6-difluorophenyl)-5-fluoropicolinamide], the IC50 in assay [1] was 400 nM; in assay [3] it was more than 10000 nM; in assay [4] it was 290 nM. The EC50 in assay [2] (KMS11-Luc cells) amounted to 640 nM.

Turning to `Nc1ncc(-c2ccccc2)nc1C(=O)Nc1cnccc1[C@H]1C[C@@H](N)[C@@]2(O)CCC[C@H]2O1` [Example 183, 3-amino-N-(4-((2R,4R,4aS,7aR)-4-amino-4a-hydroxyoctahydrocyclopenta[b]pyran-2-yl)pyridin-3-yl)-6-phenylpyrazine-2-carboxamide], the IC50 in assay [1] was 23 nM; in assay [3] (PKCα Caliper assay) it was 34 nM; in assay [4] (ATP depletion assay) it was 4.4 nM. Besides, the EC50 in assay [2] (setting [5]) was 1570 nM.

On to `N[C@H]1C[C@@H](c2ccncc2NC(=O)c2csc(-c3c(F)cccc3F)n2)O[C@H]2CCC[C@H]21` [Example 230, N-(4-((2S,4S,4aS,7aS)-4-aminooctahydrocyclopenta[b]pyran-2-yl)pyridin-3-yl)-2-(2,6-difluorophenyl)thiazole-4-carboxamide], for which the values for the IC50 in assay [1], in assay [3] (PKCα Caliper assay) and in assay [4] (ATP depletion assay) were 1500 nM, 1100 nM and 4580 nM, respectively. Moreover, the EC50 in assay [2] (setting [5]) was determined as 2990 nM.

Regarding `O=C(Nc1cnccc1[C@H]1C[C@@H](O)[C@@]2(O)CCCC[C@H]2O1)c1c[nH]cc(-c2ccccc2)c1=O` [Example 178, N-(4-((2R,4R,4aS,8aR)-4,4a-dihydroxyoctahydro-2H-chromen-2-yl)pyridin-3-yl)-4-oxo-5-phenyl-1,4-dihydropyridine-3-carboxamide], the IC50 was more than 10000 nM in assay [1], more than 10000 nM in assay [3] and 4250 nM in assay [4]. In assay [2] (KMS11-Luc cells), this compound gave an EC50 of more than 10000 nM.

Turning to `C[C@@]1(O)[C@@H](N)C[C@@H](c2ccncc2NC(=O)c2nc(-c3ccccc3)cnc2N)O[C@H]1C1CC1` [Example 347, 3-amino-N-(4-((2S,4S,5R,6S)-4-amino-6-cyclopropyl-5-hydroxy-5-methyltetrahydro-2H-pyran-2-yl)pyridin-3-yl)-6-phenylpyrazine-2-carboxamide], the figures for the IC50 in assay [1], in assay [3] (PKCα Caliper assay) and in assay [4] (ATP depletion assay) were 9000 nM, 1000 nM and 570 nM, respectively. Moreover, the EC50 in assay [2] (setting [5]) is 2430 nM.

As to `CC[C@H]1O[C@@H](c2ccncc2NC(=O)c2nc(-c3ccccc3)cnc2N)C[C@@H](N)[C@]1(C)O` [Example 348, 3-amino-N-(4-((2R,4R,5S,6R)-4-amino-6-ethyl-5-hydroxy-5-methyltetrahydro-2H-pyran-2-yl)pyridin-3-yl)-6-phenylpyrazine-2-carboxamide], the IC50 in assay [1] is 150 nM; in assay [3] (PKCα Caliper assay) it was 220 nM; in assay [4] (ATP depletion assay), 120 nM. The EC50 in assay [2] (setting [5]) was found to be 1190 nM.

`C[C@H]1O[C@@H](c2ccncc2NC(=O)c2ccc(F)c(-c3c(F)cccc3F)n2)C[C@@H](N)[C@]1(C)O` [Example 219, N-(4-((2R,4R,5S,6R)-4-amino-5-hydroxy-5,6-dimethyltetrahydro-2H-pyran-2-yl)pyridin-3-yl)-6-(2,6-difluorophenyl)-5-fluoropicolinamide]: the IC50 is 630 nM in assay [1], more than 10000 nM in assay [3] (PKCα Caliper assay) and 979 nM in assay [4] (ATP depletion assay). Also, in assay [2] (setting [5]), the EC50 turned out to be 420 nM.

On to `Nc1ncc(-c2ccccc2)nc1C(=O)Nc1cnccc1[C@@H]1C[C@H](N)[C@@H]2CCC[C@@H]2O1` [Example 233, 3-amino-N-(4-((2S,4S,4aS,7aS)-4-aminooctahydrocyclopenta[b]pyran-2-yl)pyridin-3-yl)-6-phenylpyrazine-2-carboxamide], for which the values for the half-maximal inhibitory concentration (IC50) in assay [1], in assay [3] (PKCα Caliper assay) and in assay [4] (ATP depletion assay) were 940 nM, 550 nM and 330 nM, respectively. Further, the EC50 in assay [2] (setting [5]) came to 100 nM.

As to `Nc1ncc(-c2ccccc2)nc1C(=O)Nc1cnccc1[C@H]1C[C@@H](N)[C@H]2CCC[C@H]2O1` [Example 199, 3-amino-N-(4-((2R,4R,4aR,7aR)-4-aminooctahydrocyclopenta[b]pyran-2-yl)pyridin-3-yl)-6-phenylpyrazine-2-carboxamide], the IC50 in assay [1] is 14 nM; in assay [3] (PKCα Caliper assay), 31 nM; in assay [4] (ATP depletion assay) it was 7.6 nM. Moreover, in assay [2] (setting [5]), the EC50 came to 590 nM.

Regarding `CC(C)[C@@H]1C[C@H](N)C[C@H](c2ccncc2NC(=O)c2nc(-c3ccccc3)cnc2N)O1` [Example 291, 3-amino-N-(4-((2R,4S,6S)-4-amino-6-isopropyltetrahydro-2H-pyran-2-yl)pyridin-3-yl)-6-phenylpyrazine-2-carboxamide], the figures for the IC50 in assay [1], in assay [3] (PKCα Caliper assay) and in assay [4] (ATP depletion assay) were 81 nM, 43 nM and 4.4 nM, respectively. Further, in assay [2] (setting [5]), the EC50 was 340 nM.

As for `CC(C)(C)[C@@H]1O[C@H](c2ccncc2NC(=O)c2nc(-c3ccccc3)cnc2N)C[C@@H](N)[C@H]1O` [Example 227, 3-amino-N-(4-((2S,4R,5R,6S)-4-amino-6-tert-butyl-5-hydroxytetrahydro-2H-pyran-2-yl)pyridin-3-yl)-6-phenylpyrazine-2-carboxamide], the IC50 turned out to be 1300 nM in assay [1], 55 nM in assay [3] (PKCα Caliper assay) and 6.4 nM in assay [4] (ATP depletion assay). Besides, in assay [2] (setting [5]), the EC50 is 5310 nM.
